Active and inactive are the calls of the source. How the calls were made is not given here.
Tests used:
Hepatitis C virus = assay: Antiviral activity against HCV 1a; format: functional, organism-based; conditions: Hepacivirus hominis; subtype 1a
[1] = Cytotoxicity against MDBK cells; format: cell-based, Bos taurus; conditions: cattle
[2] = Selectivity index, CC50 for MDBK cells/EC50 for BVDV NADL; format: functional
[3] = tested on: Bovine viral diarrhea virus 1; assay: Antiviral activity against BVDV NADL in MDBK cells; format: functional, organism-based; conditions: Bovine viral diarrhea virus isolates and strains

| Compound | Activity (Hepatitis C virus) | CC50 [1] [µM] | Ratio CC50/EC50 [2] | EC50 [3] [µM] |
| --- | --- | --- | --- | --- |
| COc1cccc(Cn2ccc3nc(-c4ccccc4)nc-3c2)c1 | inactive | > 100 | >200 | 0.5 |
| Ic1ccc(Cn2ccc3nc(-c4ccccc4)nc-3c2)cc1 | inactive | 22 | 183 | 0.12 |
| Fc1cccc(F)c1Cn1c(-c2c(F)cccc2F)nc2ccncc21 | inactive | 99 | <=2 | ≥ 48 |
| c1ccc(-c2nc3ccn(Cc4ccncc4)cc-3n2)cc1 | inactive | > 100 | >50 | 2 |
| Fc1cccc(F)c1Cn1cccc2nc(-c3c(F)cccc3F)nc1-2 | inactive | > 100 | <=3 | ≥ 32 |
| c1ccc(CCCn2ccc3nc(-c4ccccc4)nc-3c2)cc1 | inactive | > 100 | >143 | 0.7 |
| Fc1cccc(Cn2ccc3nc(-c4ccccc4)nc-3c2)c1 | inactive | > 100 | >667 | 0.15 |
| c1ccc(Cn2ccc3nc(-c4ccccc4)nc-3c2)cc1 | inactive | > 100 | >400 | 0.25 |
| CCn1ccc2nc(-c3ccccc3)nc-2c1 | inactive | > 100 | >7 | 15 |
| O=C(O)c1ccc(Cn2ccc3nc(-c4ccccc4)nc-3c2)cc1 | inactive | > 100 |  | > 100 |
| Cc1cccc(Cn2ccc3nc(-c4ccccc4)nc-3c2)c1 | inactive | > 100 | >167 | 0.6 |
| Fc1cccc(F)c1-c1nc2ccn(Cc3ccccc3)cc-2n1 | inactive | > 100 | >25 | 4 |
| N#Cc1cccc(Cn2ccc3nc(-c4ccccc4)nc-3c2)c1 | inactive | > 100 | >25 | 4 |
| Cc1ccc(Cn2ccc3nc(-c4ccccc4)nc-3c2)cc1 | inactive | > 100 | >769 | 0.13 |
| c1ccc(-c2nc3ccn(Cc4cccc5ccccc45)cc-3n2)cc1 | inactive | 61 | 1017 | 0.06 |
| Brc1ccccc1Cn1ccc2nc(-c3ccccc3)nc-2c1 | inactive | > 100 | >357 | 0.28 |
| Fc1cccc(F)c1Cn1c(-c2c(F)cccc2F)nc2cnccc21 | inactive | > 100 | >6 | 16.2 |
| CC(C)N(CCn1ccc2nc(-c3ccccc3)nc-2c1)C(C)C | inactive | > 100 | >45 | 2.2 |
| COc1ccccc1Cn1ccc2nc(-c3ccccc3)nc-2c1 | inactive | > 100 | >370 | 0.27 |
| FC(F)(F)c1ccc(Cn2ccc3nc(-c4ccccc4)nc-3c2)cc1 | inactive | 84 | 455 | 0.22 |
| c1ccc(-c2nc3ccn(Cc4ccccn4)cc-3n2)cc1 | inactive | > 100 | >63 | 1.6 |
| CC(C)CCn1ccc2nc(-c3ccccc3)nc-2c1 | inactive | > 100 | >26 | 3.8 |
| CC(C)(C)c1ccc(Cn2ccc3nc(-c4ccccc4)nc-3c2)cc1 | inactive | 22 | 45 | 0.49 |
| c1ccc(-c2nc3cc[nH]cc-3n2)cc1 | inactive | > 100 | >10 | 10 |
| Fc1cccc(F)c1Cn1ccc2nc(-c3ccccc3)nc-2c1 | inactive | > 100 | >435 | 0.23 |
| CC(c1ccccc1)n1ccc2nc(-c3ccccc3)nc-2c1 (centres undefined) | inactive | > 100 | >48 | 2.1 |
| Clc1cccc(Cn2ccc3nc(-c4ccccc4)nc-3c2)c1 | inactive | > 100 | >476 | 0.21 |

| Compound | Activity (Hepatitis C virus) | CC50 [1] [µM] | Ratio CC50/EC50 [2] | EC50 [3] [µM] |
| --- | --- | --- | --- | --- |
| Clc1ccccc1Cn1ccc2nc(-c3ccccc3)nc-2c1 | inactive | > 100 | >526 | 0.19 |
| Fc1ccc(Cn2ccc3nc(-c4ccccc4)nc-3c2)cc1 | inactive | > 100 | >833 | 0.12 |
| FC(F)(F)c1cccc(Cn2ccc3nc(-c4ccccc4)nc-3c2)c1 | inactive | 98 | 408 | 0.24 |
| Clc1ccc(Cn2ccc3nc(-c4ccccc4)nc-3c2)cc1Cl | inactive | 71 | 645 | 0.11 |
| Fc1ccccc1Cn1ccc2nc(-c3ccccc3)nc-2c1 | inactive | > 100 | >1000 | 0.1 |
| c1ccc(CCCCn2ccc3nc(-c4ccccc4)nc-3c2)cc1 | inactive | 95 | 45 | 2.1 |
| Cc1ccccc1Cn1ccc2nc(-c3ccccc3)nc-2c1 | inactive | > 100 | >333 | 0.3 |
| c1ccc(-c2ccc(Cn3ccc4nc(-c5ccccc5)nc-4c3)cc2)cc1 | inactive | 18 | 225 | 0.08 |
| Brc1ccc(Cn2ccc3nc(-c4ccccc4)nc-3c2)cc1 | inactive |  | 1186 | 0.07 |
| c1ccc(-c2nc3ccn(Cc4ccc5ccccc5c4)cc-3n2)cc1 | inactive | 67 | 13 | 5 |
| Fc1cccc(F)c1-c1nc2ccn(CCc3ccccc3)cc-2n1 | inactive | > 100 | >2 | 57 |
| Fc1cccc(F)c1Cn1ccc2nc(-c3c(F)cccc3F)nc-2c1 | inactive | > 100 | >65 | 1.5 |
| N#Cc1ccc(Cn2ccc3nc(-c4ccccc4)nc-3c2)cc1 | inactive | > 100 | >435 | 0.23 |
| c1ccc(-c2nc3ccn(CC4CCCCC4)cc-3n2)cc1 | inactive | > 100 | >118 | 0.85 |
| c1ccc(-c2nc3ccn(Cc4cccnc4)cc-3n2)cc1 | inactive | > 100 | >59 | 1.7 |
| CCC(CC)Cn1ccc2nc(-c3ccccc3)nc-2c1 | inactive | > 100 | >52 | 1.9 |
| FC(F)(F)Oc1ccc(Cn2ccc3nc(-c4ccccc4)nc-3c2)cc1 | inactive | 66 | 244 | 0.27 |
| Clc1ccc(Cn2ccc3nc(-c4ccccc4)nc-3c2)s1 | inactive | > 100 | >476 | 0.21 |
| COc1ccc(Cn2ccc3nc(-c4ccccc4)nc-3c2)cc1 | inactive | > 100 | >714 | 0.14 |
| CC(C)=CCn1ccc2nc(-c3ccccc3)nc-2c1 | inactive | > 100 | >33 | 3 |
| N#Cc1ccccc1Cn1ccc2nc(-c3ccccc3)nc-2c1 | inactive | > 100 | >132 | 0.76 |
| FC(F)(F)c1ccccc1Cn1ccc2nc(-c3ccccc3)nc-2c1 | inactive | > 100 | >67 | 1.5 |
| C(=C\c1ccccc1)/Cn1ccc2nc(-c3ccccc3)nc-2c1 | inactive | 78 | 459 | 0.17 |
| Brc1cccc(Cn2ccc3nc(-c4ccccc4)nc-3c2)c1 | inactive | 85 | 304 | 0.28 |
| c1ccc(OCCn2ccc3nc(-c4ccccc4)nc-3c2)cc1 | inactive | > 100 | >370 | 0.27 |
| Clc1ccc(Cn2ccc3nc(-c4ccccc4)nc-3c2)cc1 | inactive | > 100 | >1250 | 0.08 |
| Cc1ccn(Cc2c(F)cccc2F)c2nc(-c3c(F)cccc3F)nc1-2 | inactive | > 100 | <=1.1 | ≥ 88 |

From ChEMBL document CHEMBL1137252, “Substituted 5-benzyl-2-phenyl-5H-imidazo[4,5-c]pyridines: a new class of pestivirus inhibitors” (Bioorg Med Chem Lett, 2006)
